A word on the cell viability: it is the share of living cells, or the viability signal relative to a control.

Molecules are shown by their SMILES.

In data set [1] the test system is PAM212 cells. Put plainly: Transfection of PAM212 cells with pGTmCMV.IFN-GFP plasmid using gemini cationic surfactants and DOPE; IFNγ by ELISA. The data set is classed as cell-based, murine. To be noted: for IFN-γ expression: PAM212 cells, pGTmCMV.IFN-GFP, plasmid-gemini surfactant charge ratio 1:10 in 1 mM DOPE vesicles; for IFNγ levels versus the other compounds with longer linkers: p<0.001; for transfection efficiency (in words): dependence on spacer length, charge ratio 1:10, DOPE. As for the experimental part:
The pGTmCMV.IFN-GFP plasmid was used at a concentration of 0.2 μg/well for transfection. Eight gemini surfactants were tested in this study (FIG. 1) (Wettig et al., 2001). Aqueous solutions (1.5 mM) of the gemini cationic surfactants were prepared and filtered through 0.2 μm Acrodisc® filters (Pall Gelman, Ann Arbor, Mich.). Lipid vesicles were prepared by using sonication techniques. 1,2 dioleyl-sn-glycero-phosphatidylethanolamine (DOPE) (Avanti Polar Lipids, Alabaster, Ala.) and α-tocopherol (Spectrum, Gardena Calif.) in 1:0.2 weight ratios were dissolved in 100% ethanol (Commercial Alcohols Inc., Brampton, ON) at a concentration of 10 mg lipid/mL in a round bottom flask. The solvent was evaporated in a rotary evaporator (Rotavapor RE111 BÜCHI Laboratoriums-Technik AG, Switzerland) at 100 rpm and 55° C. to deposit a thin film on the walls of the vessel. To remove traces of organic solvent, the lipid was lyophilized overnight. Glass beads were added to the flask and the lipid was resuspended at 1 μmol/mL concentration in 9.25% w/v isotonic sucrose (Spectrum, Gardena, Calif.) solution (pH 9). The suspensions were bath-sonicated (Branson 2200, Cleansonic Orange, Va.) for 3 hours at 55° C., followed by filtration through 0.45 μm Acrodisc® filters. PAM 212 murine keratinocyte cells were prepared for transfection as described earlier.
The transfection mixtures were prepared as follows: 0.2 μg of plasmid was mixed with aliquots of gemini surfactant solution to obtain plasmid DNA:gemini surfactant charge ratios of 1:5, 1:10, 1:20 or 1:40 and incubated at room temperature for 15 minutes. To this mixture, 25 μL of DOPE liposomes were added. The transfection mixtures were incubated for 30 minutes at room temperature prior to transfection and added to the cells, dropwise. The plates were incubated for periods of 5 or 6-24 hours at 37° C. in a CO2 incubator. The transfection mix was replaced with supplemented MEM and the plates further incubated for 24 hours. The supernatants were collected and stored at −20° C. As a positive control, the cells were transfected with Lipofectamine Plus™ Reagent, as described above.
ELISAs were performed using round bottom 96-well plates (Immulon II, Dynatech Laboratories, Chantilly, Va.). The plates were coated with 50 μL/well of capture antibody, rat anti-mouse IFNγ (Pharmingen, Mississauga, ON) 2 μg/mL coating buffer and incubated for 24 hours at 4° C. The wells were blocked with 1% bovine serum albumin (BSA) (New England Biolabs, Mississauga, ON) solution in PBS at room temperature for one hour. IFNγ standard (Pharmingen) of 250-2000 pg/mL concentration and was used in 1% BSA solution on plates. Protein resuspension buffer was used as a blank control. The supernatants from cell cultures and the skin and lymph homogenates, as well as the serum from mice, were diluted one in four on the plates and incubated overnight at 4° C. Biotinylated rat anti mouse IFNγ (Pharmingen) was added at […] concentration in 1% BSA solution. The plates were incubated for a further 2 h at room temperature. The streptavidin-alkaline phosphatase conjugate (Jackson Immuno Research Laboratories, Inc., West Grove, Pa.) was added in 1:5000 dilution and incubated for 1 h at room temperature, followed by addition of 4-nitrophenyl phosphate di(tris) salt 1 mg/mL in PNPP buffer (1% diethanolamine, 0.5 mM MgCl2, pH 9.8) (Sigma). Optical density of the samples was measured at 405 nm using a Benchmark Microplate Reader (BioRad, Mississauga, ON). The concentration of the IFNγ vas calculated from the standard IFNγ curve, using recombinant murine IFNγ (Pharmingen).
(An ELISA detects its analyte on a solid surface through an enzyme-linked reagent.)

For data set [2] the following is noted: cited from earlier work; for Γ × 10^6 (surface excess concentration): from Alami et al., 1993; for CMC (critical micellar concentration) / a (head group areas based on activity) / α (degree of micelle ionization): from Wettig et al., 2001; for Krafft point: from Zana; for Krafft point / distance between the cationic head groups: 2002; for distance between the cationic head groups: estimated, Chen et al.

In data set [3] the test system is PAM212 cells. The experiment in a line: FACS of transfected PAM212 cells: GFP fluorescent cells and cell viability. It is filed as cell-based, murine. As for the experimental part:
PAM212 cells were seeded on 6-well plates (Costar, Corning N.Y.) at a density of 1×10^6 cells/well density and grown to 60-80% confluency. The supplemented MEM was changed to MEM one hour prior to transfection. The transfection mixes were prepared with 1 μg pGTmCMV.IFN-GFP, using the 16-3-16 gemini cationic surfactant and DOPE liposomes at plasmid DNA:gemini cationic surfactant charge ratio of 1:5, 1:10, 1:20 or 1:40, as described earlier, keeping the concentration of the reagents constant. The cells were detached using Versene solution containing 0.05% trypsin (Sigma), pelleted at 4° C. and 1000 g for 5 minutes, washed twice with PBS and resuspended in Fa-cola (10 mM PBS pH 7.2, 0.2% gelatin, 0.03% sodium azide). Triplicate samples were pooled. The cell sorter was calibrated with non-transfected cells and 10^4 cells of each sample were counted.
The formulations were optimized for plasmid DNA:gemini surfactant charge ratio correlated with cell toxicity using the 16-3-16 compound. The optimal plasmid DNA:gemini surfactant charge ratio was determined by comparing the percentage of fluorescent cells (FIG. 5A) with cell viability (FIG. 5B). The cells were transfected with either transfection mixtures of the 16-3-16 gemini surfactant and DOPE at plasmid DNA:gemini surfactant charge ratio of 1:5, 1:10, 1:20 or 1:40, or Lipofectamine Plus™ Reagent (L), using 0.2 μg pGTmCMV.IFN-GFP, and compared to non-transfected cells (NT). Triplicate samples were pooled and 1×10^4 cells counted. […] At plasmid DNA:gemini surfactant charge ratio of 1:40 the transfection efficiency was 3.13%, however, cell viability fell to 20%. […] No fluorescence was detected in the non-transfected cells.

Setting [4] is: plasmid DNA:gemini surfactant charge ratio 1:40, with DOPE.
[5] abbreviates: plasmid:gemini surfactant charge ratio 1:10, with DOPE.

As for `CCCCCCCCCCCC[N+](C)(C)CCCCCCCCCCCCCCCC[N+](C)(C)CCCCCCCCCCCC.[Br-].[Br-]` [12-16-12], the IFN-γ expression with PAM212 cells [1] worked out at 0.49 ± 0.19 ng/5 × 10^5 cells. Moreover, in data set [2], the “Γ × 10^6 (surface excess concentration)” value is recorded as 0.83 mol/m^2, the “CMC (critical micellar concentration)” value is 0.12 ± 0.01 mM, the “a (head group areas based on activity)” value is 1.44 nm^2/molecule and the “α (degree of micelle ionization)” value is 0.59 ± 0.08. In addition, in data set [2], the Krafft point was 24.3 °C.

Regarding `CCCCCCCCCCCC[N+](C)(C)CCCC[N+](C)(C)CCCCCCCCCCCC.[Br-].[Br-]` [12-4-12], in the data set with PAM212 cells [1], the IFN-γ expression is 0.66 ± 0.32 ng/5 × 10^5 cells and the “IFNγ levels versus the other compounds with longer linkers” value (“IFNγ levels versus the other compounds” below) is recorded as “Significantly higher”. In addition, in data set [2], the “Γ × 10^6 (surface excess concentration)” value is listed as 1.43 mol/m^2, the “CMC (critical micellar concentration)” value is listed as 1.17 ± 0.04 mM, the “a (head group areas based on activity)” value is reported as 1.10 nm^2/molecule and the “α (degree of micelle ionization)” value is reported as 0.26 ± 0.02. Moreover, the Krafft point in data set [2] is 10.6 °C.

For `CCCCCCCCCCCC[N+](C)(C)CCCCCCCCCC[N+](C)(C)CCCCCCCCCCCC.[Br-].[Br-]` [12-10-12], in the data set with PAM212 cells [1], the IFN-γ expression came out at 0.29 ± 0.10 ng/5 × 10^5 cells. Moreover, in data set [2], the “Γ × 10^6 (surface excess concentration)” value was 0.75 mol/m^2, the “CMC (critical micellar concentration)” value is on record as 0.62 ± 0.03 mM, the “a (head group areas based on activity)” value was 2.16 nm^2/molecule and the “α (degree of micelle ionization)” value is 0.51 ± 0.06. The Krafft point in data set [2] was less than 0 °C.

`CCCCCCCC/C=C\CCCCCCCC(=O)OC[C@H](COP(=O)(O)OCCN)OC(=O)CCCCCCC/C=C\CCCCCCCC` [DOPE, 1,2 dioleyl-sn-glycero-phosphatidylethanolamine, reference compound]: in the data set with PAM212 cells [1] (agent alone, or plasmid without transfection agents), the “IFNγ detection after transfection with single component alone” value is given as “No IFNγ was detected”.

As for `CCCCCCCCCCCCCCCC[N+](C)(C)CCC[N+](C)(C)CCCCCCCCCCCCCCCC` [16-3-16], in the data set on PAM212 cells [1], the IFN-γ expression came out at 1.63 ± 1.37 ng/5 × 10^5 cells, the “transfection efficiency (in words)” value is “highest activity” and the “IFNγ levels versus the other compounds” value is “Significantly higher”. In addition, in the data set with PAM212 cells [3] (setting [4]), the cell viability is given as 20% and the “transfection efficiency (fluorescent cells)” value was determined as 3.13%. Also, in the data set on PAM212 cells [3] (setting [5]), the cell viability is given as 74% and the “percentage of fluorescent cells” value stood at 2.36%. Further, in data set [2], the “Γ × 10^6 (surface excess concentration)” value was 1.08 mol/m^2, the “CMC (critical micellar concentration)” value is given as 0.026 ± 0.001 mM, the “a (head group areas based on activity)” value is 1.02 nm^2/molecule and the “α (degree of micelle ionization)” value is listed as 0.35 ± 0.02. The Krafft point in data set [2] was 42 °C.

Take `CCCCCCCCCCCC[N+](C)(C)CCCCCCCC[N+](C)(C)CCCCCCCCCCCC.[Br-].[Br-]` [12-8-12]: in the data set with PAM212 cells [1], the IFN-γ expression is on record as 0.24 ± 0.12 ng/5 × 10^5 cells. Besides, in data set [2], the “Γ × 10^6 (surface excess concentration)” value is 0.94 mol/m^2, the “CMC (critical micellar concentration)” value was 0.84 ± 0.03 mM, the “a (head group areas based on activity)” value was 1.78 nm^2/molecule and the “α (degree of micelle ionization)” value was 0.46 ± 0.04. In data set [2], the Krafft point was less than 0 °C.

On to `CCCCCCCCCCCC[N+](C)(C)CCCCCCCCCCCC[N+](C)(C)CCCCCCCCCCCC` [12-12-12], for which the IFN-γ expression in the data set with PAM212 cells [1] amounted to 0.33 ± 0.16 ng/5 × 10^5 cells. Also, in data set [2], the “Γ × 10^6 (surface excess concentration)” value is on record as 0.73 mol/m^2, the “CMC (critical micellar concentration)” value is given as 0.36 ± 0.03 mM, the “a (head group areas based on activity)” value was 2.14 nm^2/molecule and the “α (degree of micelle ionization)” value was 0.56 ± 0.08. Besides, in data set [2], the Krafft point is 13.6 °C.

On to `CCCCCCCCCCCC[N+](C)(C)CCCCCC[N+](C)(C)CCCCCCCCCCCC.[Br-].[Br-]` [12-6-12], for which the IFN-γ expression with PAM212 cells [1] turned out to be 0.48 ± 0.17 ng/5 × 10^5 cells. Further, in data set [2], the “distance between the cationic head groups” value was 0.91 nm, the “Γ × 10^6 (surface excess concentration)” value is 1.16 mol/m^2, the “CMC (critical micellar concentration)” value was 1.09 ± 0.04 mM and the “a (head group areas based on activity)” value was 1.40 nm^2/molecule. For the same molecule, in data set [2], the “α (degree of micelle ionization)” value is 0.34 ± 0.02 and the Krafft point is less than 0 °C.

`CCCCCCCCCCCC[N+](C)(C)CCC[N+](C)(C)CCCCCCCCCCCC.[Br-].[Br-]` [12-3-12]: in the data set on PAM212 cells [1], the IFN-γ expression amounted to 1.11 ± 0.65 ng/5 × 10^5 cells, the “transfection efficiency (in words)” value is listed as “highest activity” and the “IFNγ levels versus the other compounds” value is “Significantly higher”. Besides, in data set [2], the “distance between the cationic head groups” value was 0.49 nm, the “Γ × 10^6 (surface excess concentration)” value is recorded as 1.58 mol/m^2, the “CMC (critical micellar concentration)” value is reported as 0.98 ± 0.04 mM and the “a (head group areas based on activity)” value is on record as 0.98 nm^2/molecule. In data set [2], the “α (degree of micelle ionization)” value is given as 0.23 ± 0.02 and the Krafft point is 12.7 °C.

The record behind these values is patent publication US20080112915A1, “Dna Delivery with Gemini Cationic Surfactants” (priority 2003, published 2008).
